Test results as given in patent US10004732B2 (Novartis AG, priority 2014, dated 2018).
Structures can show the parent of a compound that is named as a salt. Where two headings read alike, the source gives them in different places.

What was measured:
mTOR = mTOR (Homo sapiens, UniProt P42345); experiment: Lanthascreen kinase binding assay, assay G; settings: read-out: Assay G mTOR IC50
Method: Lanthascreen™ Kinase Binding Assay for mTOR (G)
Binding of an inhibitor to the kinase competes for binding with the tracer, resulting in a loss of FRET.
50 nL of compound dilutions were dispensed onto white 384-well small volume polystyrene plate.

PI 4-kinase beta = PI 4-kinase beta (Homo sapiens, UniProt Q9UBF8); experiment: Kinase Glo Luminescent Kinase Assay (Kglo), assay D; format: biochemical; settings: read-out: Assay D PI4Kβ IC50
PI 3-kinase delta [1] = biological target: T1, PI 3-kinase delta (Homo sapiens, UniProt O00329); experiment: TR-FRET Adapta assay, assay F; settings: read-out: Assay F PI3Kδ IC50
Method: (§1) TR-FRET Adapta Assay for PI 3-Kinase Gamma (E), PI 3-Kinase Delta (F)
(§2) The TR-FRET Adapta™ Universal Kinase Assay Kit was purchased from Invitrogen Corporation (Carlsbad/CA, USA) (Cat. No. PV5099).
(§3) PIK3CD substrate phosphatidylinositol (PI) was obtained from Invitrogen (vesicules consisting of 2 mM phosphatidylinositol (PI) in 50 mM HEPES pH7.5; Cat. No. PV5371). PIK3CG substrate phosphatidylinositol-4,5-bisphosphate (PIP(4,5)2 was obtained from Invitrogen (PIP2:PS large unilamellar vesicules consisting of 1 mM PIP2: 19 mM PS in 50 mM HEPES pH7.5, 3 mM MgCl2, 1 mM EGTA; Cat. No. PV5100).
(§4) Time-Resolved Fluorescence Resonance Energy Transfer (TR-FRET) is a technology based on energy transfer between two adjacent dyes, from an excited electron in one dye (the donor) to an electron of an adjacent dye (the acceptor) through resonance, then released as a photon. This energy transfer is detected by an increase in the fluorescence emission of the acceptor, and a decrease in the fluorescence emission of the donor. TR-FRET assays for protein kinases use a long-lifetime lanthanide Terbium or Europium chelates as the donor species which overcome interference from compound autofluorescence or light scatter from precipitated compounds, by introducing a delay after excitation by a flashlamp excitation source. Results are often expressed as a ratio of the intensities of the acceptor and donor fluorophores. The ratiometric nature of such a value corrects for differences in assay volumes between wells, as well as corrects for quenching effects due to colored compounds. The Adapta™ assay can be divided into two phases: a kinase reaction phase and an ADP detection phase. In the kinase reaction phase, all kinase reaction components are added to the well and the reaction is allowed to incubate for a set period of time specific for each kinase. […] In the presence of an inhibitor, the amount of ADP formed by the kinase reaction is reduced, and the resulting intact antibody-tracer interaction maintains a high TR-FRET signal.
(§5) 50 nL of compound dilutions were dispensed onto white 384-well small volume polystyrene plate. Then 5 μL of either PI 3-kinase gamma or PI 3-kinase delta and lipid substrate (PI or PIP2:PS) followed by 5 μL of ATP (final assay volume 10 μL) are incubated at RT. The standard reaction buffer for the Adapta™ TR-FRET assay contained 10 mM Tris-HCl pH 7.5, 3 mM MgCl2, 50 mM NaCl, 1 mM DTT, 0.05% CHAPS 3-[(3-cholamidopropyl)dimethylammonio]-1-propanesulfonate).
(§6) Data are analyzed using Excel fit software or Graphpad Prism. IC50 values were derived by fitting a sigmoidal dose-response curve to a plot of assay readout over inhibitor concentration. All fits were performed with the program XLfit4 (ID Business Solutions, Guildford, UK). […] All fits were performed with the program XLfit4 (ID Business Solutions, Guildford, UK).

PI 3-kinase alpha [2] = biological target: T2, PI 3-kinase alpha (Homo sapiens, UniProt P42336); experiment: Kinase Glo Luminescent Kinase Assay (Kglo), assay A; format: biochemical; settings: read-out: Assay A PI3Kα IC50
Target sequence in this assay (P42336 whole entry): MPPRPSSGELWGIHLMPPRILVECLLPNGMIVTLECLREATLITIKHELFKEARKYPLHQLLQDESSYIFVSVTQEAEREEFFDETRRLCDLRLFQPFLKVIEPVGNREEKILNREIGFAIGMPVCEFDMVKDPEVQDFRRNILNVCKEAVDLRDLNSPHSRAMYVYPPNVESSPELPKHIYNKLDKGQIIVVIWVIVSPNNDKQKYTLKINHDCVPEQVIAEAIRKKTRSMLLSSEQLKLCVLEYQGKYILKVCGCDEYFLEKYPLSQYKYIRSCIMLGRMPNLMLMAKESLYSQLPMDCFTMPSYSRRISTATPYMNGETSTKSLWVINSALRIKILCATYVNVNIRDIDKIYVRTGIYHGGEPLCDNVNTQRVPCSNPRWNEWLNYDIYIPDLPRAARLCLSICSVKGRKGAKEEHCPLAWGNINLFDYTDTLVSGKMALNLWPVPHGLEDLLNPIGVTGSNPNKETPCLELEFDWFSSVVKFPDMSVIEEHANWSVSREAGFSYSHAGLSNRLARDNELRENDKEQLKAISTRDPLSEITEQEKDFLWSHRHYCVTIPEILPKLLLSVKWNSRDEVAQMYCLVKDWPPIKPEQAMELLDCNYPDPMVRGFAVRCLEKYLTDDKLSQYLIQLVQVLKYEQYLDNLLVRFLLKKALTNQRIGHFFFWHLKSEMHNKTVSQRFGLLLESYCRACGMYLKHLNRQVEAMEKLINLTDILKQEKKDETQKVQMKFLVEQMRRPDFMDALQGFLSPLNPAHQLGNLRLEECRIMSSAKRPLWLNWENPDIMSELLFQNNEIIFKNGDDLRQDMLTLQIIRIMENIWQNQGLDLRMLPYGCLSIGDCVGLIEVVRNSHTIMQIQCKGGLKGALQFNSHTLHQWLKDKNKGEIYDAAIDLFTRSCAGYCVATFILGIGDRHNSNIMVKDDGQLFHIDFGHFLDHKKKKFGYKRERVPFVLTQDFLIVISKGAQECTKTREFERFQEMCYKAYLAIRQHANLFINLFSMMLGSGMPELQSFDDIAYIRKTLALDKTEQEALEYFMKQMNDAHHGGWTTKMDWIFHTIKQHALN
Method: Kinase Glo Luminescent Kinase Assay (Kglo) for Pb 3-Kinase Alpha (A), Pb 3-Kinase Beta (B), Vps34 (C), Pb 4-Kinase Beta (D)
The Kinase Glo Luminescent Kinase Assay (Promega, Madison/Wis., USA) is a homogeneous HTS method of measuring kinase activity by quantifying the amount of ATP remaining in solution following a kinase reaction.
L-α-phosphatidylinositol (PI), provided as 10 mg/ml solution in methanol, was transferred into a glass tube and dried under a nitrogen beam. It was then resuspended in 3% OctylGlucoside (1-0-n-octyl-beta-D-glucopyranoside) by vortexing and stored at 4° C. 5 μL of a mix of PI/OctylGlucoside with the PI 3-kinase alpha and PI 3-kinase beta subtypes, or Vps34 or PI 4-kinase beta were added. Kinase reactions were started by the addition of 5 μl of an ATP-mix containing in a final volume 10 μL 10 mM TRIS-HCl pH 7.5, 3 mM MgCl2, 50 mM NaCl, 0.05% CHAPS, 1 mM DTT and 1 μM ATP at room temperature.
All fits were performed with the program XLfit4 (ID Business Solutions, Guildford, UK).

PI 3-kinase gamma [3] = biological target: T3, PI 3-kinase gamma (Homo sapiens, UniProt P48736); experiment: TR-FRET Adapta assay, assay E; format: biochemical; settings: read-out: Assay E PI3Kγ IC50
T3 sequence (P48736 whole entry): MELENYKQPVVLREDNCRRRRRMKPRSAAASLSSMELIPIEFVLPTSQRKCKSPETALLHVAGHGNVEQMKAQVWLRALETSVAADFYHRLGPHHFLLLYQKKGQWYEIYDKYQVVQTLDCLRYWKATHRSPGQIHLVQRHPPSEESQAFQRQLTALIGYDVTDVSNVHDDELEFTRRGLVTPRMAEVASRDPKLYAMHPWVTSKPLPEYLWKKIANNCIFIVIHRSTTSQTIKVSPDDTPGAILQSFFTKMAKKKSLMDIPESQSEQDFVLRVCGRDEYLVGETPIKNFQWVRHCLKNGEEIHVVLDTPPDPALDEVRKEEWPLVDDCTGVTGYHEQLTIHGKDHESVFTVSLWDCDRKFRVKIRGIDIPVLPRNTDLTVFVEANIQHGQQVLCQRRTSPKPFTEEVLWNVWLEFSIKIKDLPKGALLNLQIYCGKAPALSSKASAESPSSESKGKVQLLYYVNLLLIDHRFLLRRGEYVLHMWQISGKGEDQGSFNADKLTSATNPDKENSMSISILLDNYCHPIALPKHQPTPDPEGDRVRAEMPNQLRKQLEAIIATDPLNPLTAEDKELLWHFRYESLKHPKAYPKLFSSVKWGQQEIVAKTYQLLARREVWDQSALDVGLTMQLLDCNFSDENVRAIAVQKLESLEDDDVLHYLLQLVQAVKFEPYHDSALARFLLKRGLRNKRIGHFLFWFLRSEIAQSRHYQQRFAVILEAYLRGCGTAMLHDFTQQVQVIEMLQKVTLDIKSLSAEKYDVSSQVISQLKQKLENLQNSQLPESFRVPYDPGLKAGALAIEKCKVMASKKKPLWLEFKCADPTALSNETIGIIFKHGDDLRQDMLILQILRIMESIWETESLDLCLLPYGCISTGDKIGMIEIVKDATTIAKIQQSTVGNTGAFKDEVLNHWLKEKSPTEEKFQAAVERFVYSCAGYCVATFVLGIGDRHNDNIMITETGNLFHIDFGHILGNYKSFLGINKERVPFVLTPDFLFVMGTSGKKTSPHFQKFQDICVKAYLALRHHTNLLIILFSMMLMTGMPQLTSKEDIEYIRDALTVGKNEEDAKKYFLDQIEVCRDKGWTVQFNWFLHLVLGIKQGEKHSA
Method: as §1, §2, §3, §4, §5, §6

Vps34 = Vps34 (Homo sapiens, UniProt Q8NEB9); experiment: Kinase Glo Luminescent Kinase Assay (Kglo), assay C; format: biochemical; settings: read-out: Assay C VPS34 IC50
Sequence of Vps34 (Q8NEB9 whole entry, species assumed): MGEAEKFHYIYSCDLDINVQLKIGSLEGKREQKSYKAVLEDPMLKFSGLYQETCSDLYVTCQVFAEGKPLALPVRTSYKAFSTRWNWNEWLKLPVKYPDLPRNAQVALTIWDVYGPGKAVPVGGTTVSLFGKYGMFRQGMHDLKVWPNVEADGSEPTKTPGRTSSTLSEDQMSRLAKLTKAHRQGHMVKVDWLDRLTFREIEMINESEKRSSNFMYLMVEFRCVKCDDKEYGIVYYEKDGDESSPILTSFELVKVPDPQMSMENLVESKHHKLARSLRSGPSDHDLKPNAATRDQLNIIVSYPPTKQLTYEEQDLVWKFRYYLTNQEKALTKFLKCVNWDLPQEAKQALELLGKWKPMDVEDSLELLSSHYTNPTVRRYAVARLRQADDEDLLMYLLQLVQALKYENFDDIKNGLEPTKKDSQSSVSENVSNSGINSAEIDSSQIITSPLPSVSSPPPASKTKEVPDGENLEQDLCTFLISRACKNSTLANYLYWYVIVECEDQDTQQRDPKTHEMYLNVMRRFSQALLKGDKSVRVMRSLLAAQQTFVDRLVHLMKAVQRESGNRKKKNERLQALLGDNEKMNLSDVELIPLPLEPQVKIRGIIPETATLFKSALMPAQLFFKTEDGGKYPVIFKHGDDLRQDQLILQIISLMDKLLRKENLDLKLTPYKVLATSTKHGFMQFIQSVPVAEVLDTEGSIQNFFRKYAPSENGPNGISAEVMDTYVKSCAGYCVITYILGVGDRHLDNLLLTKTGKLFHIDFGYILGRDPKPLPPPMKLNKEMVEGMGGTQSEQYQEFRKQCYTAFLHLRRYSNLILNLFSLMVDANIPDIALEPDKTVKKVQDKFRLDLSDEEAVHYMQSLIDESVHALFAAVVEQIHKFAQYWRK

[4] = test system: IL-8-induced neutrophil shape change in human whole blood; experiment: Whole blood neutrophil shape change assay (L); format: cell-based; settings: IL-8, human whole blood, read-out: Assay L WBSC IC50
PI 3-kinase beta [5] = biological target: T4, PI 3-kinase beta (Homo sapiens, UniProt P42338); experiment: Kinase Glo Luminescent Kinase Assay (Kglo), assay B; format: biochemical; settings: read-out: Assay B PI3Kβ IC50
Target sequence in this assay (P42338 whole entry): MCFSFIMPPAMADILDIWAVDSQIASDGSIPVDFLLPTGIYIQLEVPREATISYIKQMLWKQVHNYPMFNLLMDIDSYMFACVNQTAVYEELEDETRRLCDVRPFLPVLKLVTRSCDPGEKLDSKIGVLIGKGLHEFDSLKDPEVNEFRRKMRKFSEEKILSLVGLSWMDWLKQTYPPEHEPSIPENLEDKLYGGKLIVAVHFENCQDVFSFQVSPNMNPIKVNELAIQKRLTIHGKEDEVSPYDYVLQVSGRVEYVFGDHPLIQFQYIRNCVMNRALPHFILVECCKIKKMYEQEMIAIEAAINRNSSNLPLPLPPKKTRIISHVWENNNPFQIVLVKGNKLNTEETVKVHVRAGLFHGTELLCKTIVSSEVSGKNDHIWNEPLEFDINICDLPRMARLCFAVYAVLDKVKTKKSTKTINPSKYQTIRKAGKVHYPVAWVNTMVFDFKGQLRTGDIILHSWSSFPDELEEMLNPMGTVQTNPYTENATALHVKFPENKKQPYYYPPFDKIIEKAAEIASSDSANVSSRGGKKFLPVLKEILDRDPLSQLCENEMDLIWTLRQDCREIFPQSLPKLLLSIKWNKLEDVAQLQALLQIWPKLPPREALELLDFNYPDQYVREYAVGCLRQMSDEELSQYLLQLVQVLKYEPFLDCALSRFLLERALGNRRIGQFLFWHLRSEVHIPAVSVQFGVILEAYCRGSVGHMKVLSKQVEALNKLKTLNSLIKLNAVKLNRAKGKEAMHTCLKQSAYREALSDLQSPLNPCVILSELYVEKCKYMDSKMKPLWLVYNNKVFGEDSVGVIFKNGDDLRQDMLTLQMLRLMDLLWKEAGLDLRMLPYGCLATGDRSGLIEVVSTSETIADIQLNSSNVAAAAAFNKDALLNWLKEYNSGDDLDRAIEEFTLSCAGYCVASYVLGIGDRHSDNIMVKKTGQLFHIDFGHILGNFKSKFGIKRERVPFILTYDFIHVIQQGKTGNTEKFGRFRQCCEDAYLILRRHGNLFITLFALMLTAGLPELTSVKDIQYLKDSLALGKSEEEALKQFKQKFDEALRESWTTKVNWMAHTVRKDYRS
Target sequence in this assay (P27986 461-568 partner): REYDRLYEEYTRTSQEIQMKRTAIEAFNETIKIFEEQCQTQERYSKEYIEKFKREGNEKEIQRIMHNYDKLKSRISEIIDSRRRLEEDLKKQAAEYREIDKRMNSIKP

[6] = Microsomal clearance assay (M); settings: intrinsic clearance in rat liver microsomes
Method: The experiments were performed in 96-well glass plates at 37° C. on an automated Tecan EVO platform. Test compounds at a concentration of 10 mM in pure DMSO were diluted 1:1000 in water to 10 μM. […] Reactions were initiated by the addition of 150 μL of a cofactor solution containing 2 mM NADPH.

PI 3-kinase beta [7] = biological target: T4, PI 3-kinase beta; experiment: Cellular assay I1, p-Akt (S473) in Rat-1 cells, Surefire format; format: cell-based; settings: non-asterisked data: version I1 (Surefire format), Rat-1 cells; read-out: Assay I PI3Kβ IC50
Target sequence in this assay (P42338 whole entry): as the sequence (P42338 whole entry) above
Target sequence in this assay (Q63787 whole entry partner): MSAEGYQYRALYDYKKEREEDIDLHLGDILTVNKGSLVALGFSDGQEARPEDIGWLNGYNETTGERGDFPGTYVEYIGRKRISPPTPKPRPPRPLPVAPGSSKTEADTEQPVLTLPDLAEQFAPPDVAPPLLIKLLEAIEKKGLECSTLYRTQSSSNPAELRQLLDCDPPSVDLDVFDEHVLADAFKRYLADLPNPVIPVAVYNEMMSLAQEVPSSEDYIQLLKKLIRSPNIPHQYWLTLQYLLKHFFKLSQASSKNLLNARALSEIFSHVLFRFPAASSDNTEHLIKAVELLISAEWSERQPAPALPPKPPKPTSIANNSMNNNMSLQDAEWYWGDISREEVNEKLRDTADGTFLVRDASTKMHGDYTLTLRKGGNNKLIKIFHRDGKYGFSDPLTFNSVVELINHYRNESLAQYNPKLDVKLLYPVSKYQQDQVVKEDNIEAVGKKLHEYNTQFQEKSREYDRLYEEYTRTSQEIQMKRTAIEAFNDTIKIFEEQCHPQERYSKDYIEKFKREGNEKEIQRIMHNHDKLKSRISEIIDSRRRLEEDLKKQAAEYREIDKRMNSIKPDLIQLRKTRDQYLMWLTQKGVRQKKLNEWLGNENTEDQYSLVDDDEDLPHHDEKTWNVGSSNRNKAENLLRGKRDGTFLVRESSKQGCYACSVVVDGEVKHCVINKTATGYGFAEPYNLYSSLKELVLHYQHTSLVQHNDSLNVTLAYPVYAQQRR

PI 3-kinase delta [8] = biological target: T1, PI 3-kinase delta; experiment: Cellular assay J1, p-Akt (S473) in Rat-1 cells, Surefire format; format: cell-based; settings: non-asterisked data: version J1 (Surefire format), Rat-1 cells; read-out: Assay J PI3Kδ IC50
PI 3-kinase gamma [9] = biological target: T3, PI 3-kinase gamma; experiment: Cellular U937 AKT assay K1 (MSD); format: cell-based; settings: U937 cells, K1 format; read-out: Assay K1 PI3Kγ IC50
PI 3-kinase alpha [10] = biological target: T2, PI 3-kinase alpha; experiment: Cellular assay H1, p-Akt (S473) in Rat-1 cells, Surefire format; format: cell-based; settings: non-asterisked data: version H1 (Surefire format), Rat-1 cells; read-out: Assay H PI3Kα IC50
Target sequence in this assay (P42336 whole entry): as the sequence (P42336 whole entry) above
Target sequence in this assay (Q63787 whole entry partner): as the sequence (Q63787 whole entry partner) above
From the text: Cellular Assays for PI 3-Kinase Alpha (H1), Beta (I1) and Delta (J1): Surefire Format
AlphaScreen (Amplified Luminescent Proximity Homogeneous Assay, ALPHA, Perkin Elmer) is a non-radioactive bead-based proximity assay technology to study biomolecular interactions in a homogenous microtiter plate format. The brand name SureFire denotes AlphaScreen assays that are adapted to quantify the phosphorylation of endogenous cellular proteins in cell lysates, by using matched antibody pairs, which consist of an anti-phospho-kinase and an anti-kinase antibody. The assay allows characterization of kinase signaling in cells as well as measurement of kinase inhibitor effects.
Using Rat-1 cells stably expressing myr-HA-tagged versions of the human PI3Kdelta, PI3Kalpha, or PI3Kbeta p110 catalytic subunit isoforms, the assay was developed as a two-plate protocol in a 384-well format.
For compound testing, the cells were seeded at a density of 4000 (Rat-1_PI3Kdelta), 7500 (Rat-1_PI3Kalpha), or 6200 (Rat-1_PI3Kbeta) cells in 20 μl complete growth medium into cell culture treated 384-well plates and were grown at 37° C./5% CO2/90% humidity for 24 h. Shortly before compound transfer, the complete medium was removed, 30 μl assay buffer (DMEM high glucose, 1×MEM NEAA, 10 mM HEPES, 2 mM L-glutamine, 0.1% (w/v) BSA) was added and 10 μl of the compound predilutions were transferred to the cells.

Compound	IC50 (mTOR) [nM]	IC50 (PI 4-kinase beta) [nM]	IC50 (PI 3-kinase delta [1]) [nM]	IC50 (PI 3-kinase alpha [2]) [nM]	IC50 (PI 3-kinase gamma [3]) [nM]	IC50 (Vps34) [nM]	IC50 ([4]; Homo sapiens, Neutrophil) [nM]	IC50 (PI 3-kinase beta [5]) [nM]	Assay M RLM CI(int) [6] [µL/min/mg]	IC50 (PI 3-kinase beta [7]) [nM]	IC50 (PI 3-kinase delta [8]) [nM]	IC50 (PI 3-kinase gamma [9]) [nM]	IC50 (PI 3-kinase alpha [10]) [nM]	IC50 [4] [nM]
Cc1ccc(S(=O)(=O)NCC(F)(F)F)cc1-c1cnc(N)c(-n2cncn2)n1 [Example 127, 3-(5-Amino-6-(1H-1,2,4-triazol-1-yl)pyrazin-2-yl)-4-methyl-N-(2,2,2-trifluoroethyl)benzenesulfonamide]	2600	4400	880	300	24	> 10000	1500	1100						
Cc1ccc(S(=O)(=O)NCC[C@@H](O)C(F)(F)F)cc1-c1cnc(N)c(-c2cn(C)nc2C)n1 (single isomer, unassigned) [Example 52a, (R)-3-(5-Amino-6-(1,3-dimethyl-1H-pyrazol-4-yl)pyrazin-2-yl)-4-methyl-N-(4,4,4-trifluoro-3-hydroxybutyl)benzenesulfonamide or (S)-3-(5-Amino-6-(1,3-dimethyl-1H-pyrazol-4-yl)pyrazin-2-yl)-4-methyl-N-(4,4,4-trifluoro-3-hydroxybutyl)benzenesulfonamide]		5500		170	16	> 10000			60					806
Cc1ccc(S(=O)(=O)NCC(C)(C)O)cc1-c1cnc(N)c(-c2nc(C(C)C)no2)n1 [Example 97, 3-(5-Amino-6-(3-isopropyl-1,2,4-oxadiazol-5-yl)pyrazin-2-yl)-N-(2-hydroxy-2-methylpropyl)-4-methylbenzenesulfonamide]	> 10000	> 10000				> 10000	2150		60					
Cc1cc(F)c(S(=O)(=O)NCCC(C)(C)O)cc1-c1cnc(N)c(-n2cncn2)n1 [Example 116, 5-(5-Amino-6-(1H-1,2,4-triazol-1-yl)pyrazin-2-yl)-2-fluoro-N-(3-hydroxy-3-methylbutyl)-4-methylbenzenesulfonamide]	> 9100	8100	300	1200	28	> 9100		> 9100	35	4750	2120	197	2310	
Cc1ccc(S(=O)(=O)NCCC(O)C(F)(F)F)cc1-c1cnc(N)c(-c2cnn(C)c2)n1 (stereo not shown) [Example 51, 3-(5-Amino-6-(1-methyl-1H-pyrazol-4-yl)pyrazin-2-yl)-4-methyl-N-(4,4,4-trifluoro-3-hydroxybutyl)benzenesulfonamide]	> 9100	> 9100	490	370	42	7150		4190	55	6600	3950	68	6170	
Cc1ncc(-c2nc(-c3cc(S(=O)(=O)NCC4COC4)ccc3C)cnc2N)s1 [Example 45.1, 3-(5-Amino-6-(2-methylthiazol-5-yl)pyrazin-2-yl)-4-methyl-N-(oxetan-3-ylmethyl)benzenesulfonamide]		3000	80	50	11	1900	306	200	70					

The next lines start with results.

IC50 (mTOR) [nM]	IC50 (PI 4-kinase beta) [nM]	IC50 (PI 3-kinase delta [1]) [nM]	IC50 (PI 3-kinase alpha [2]) [nM]	IC50 (PI 3-kinase gamma [3]) [nM]	IC50 (Vps34) [nM]	IC50 ([4]; Homo sapiens, Neutrophil) [nM]	IC50 (PI 3-kinase beta [5]) [nM]	Assay M RLM CI(int) [6] [µL/min/mg]	IC50 (PI 3-kinase beta [7]) [nM]	IC50 (PI 3-kinase delta [8]) [nM]	IC50 (PI 3-kinase gamma [9]) [nM]	IC50 (PI 3-kinase alpha [10]) [nM]	Compound	IC50 [4] [nM]
> 9100	> 9100	380	540	42	> 9100	2950	2300						CCN1CCC[C@@H]1CNS(=O)(=O)c1ccc(C)c(-c2cnc(N)c(-c3ccnc(C)c3)n2)c1 [Example 129.25, (R)-3-(5-amino-6-(2-methylpyridin-4-yl)pyrazin-2-yl)-N-((1-ethylpyrrolidin-2-yl)methyl)-4-methylbenzenesulfonamide]	
1500	6300	1100	260	40	> 10000	3990	1300						Cc1ccc(S(=O)(=O)NC2CC(F)(F)C2)cc1-c1cnc(N)c(-n2cncn2)n1 [Example 127.7]	
1800	2600	1100	180	32	> 10000	> 100000	1100						Cc1ccc(S(=O)(=O)NC2CCC2)cc1-c1cnc(N)c(-n2cncn2)n1 [Example 127.54]	
9300	> 10000	2100	1400	100	> 10000	6280	2300						Cc1ccc(S(=O)(=O)NC[C@@H]2CCC(C)(C)O2)cc1-c1cnc(N)c(-n2cncn2)n1 [Example 127.39]	
	5900	3200	1200	60	> 10000	2490	6200						Cc1ccc(S(=O)(=O)N[C@H](C#N)CO)cc1-c1cnc(N)c(-n2cncn2)n1 [Example 127.48]	
5900	5200	230	570	150	> 10000	1790	2000						Cc1ccc(S(=O)(=O)NC[C@@H]2CCOC2)cc1-c1cnc(N)c(-n2cncn2)n1 [Example 127.26]	
8700	5000	1100	330	45	> 10000	1720	810						Cc1ccc(S(=O)(=O)NCC2(O)CCC2)cc1-c1cnc(N)c(-n2cncn2)n1 [Example 127.16]	
> 9100	> 9100	1000	2900	53	> 9100	8950	> 9100						Cc1cc(-c2nc(-c3cc(S(=O)(=O)NC4CCN(C(C)C)CC4)ccc3C)cnc2N)ccn1 [Example 129.21, 3-(5-amino-6-(2-methylpyridin-4-yl)pyrazin-2-yl)-N-(1-isopropylpiperidin-4-yl)-4-methylbenzenesulfonamide]	
6300	6500	250	190	23	> 9100	721	6300						Cc1cc(-c2nc(-c3cc(S(=O)(=O)NC4CCC(CO)CC4)ccc3C)cnc2N)ccn1 (stereo not shown) [Example 129.1, 3-(5-amino-6-(2-methylpyridin-4-yl)pyrazin-2-yl)-N-(4-(hydroxymethyl)cyclohexyl)-4-methylbenzenesulfonamide]	
1200	> 10000	460	1300	42	> 10000	23600	1300						Cc1ccc(S(=O)(=O)NC[C@H]2CCNC2)cc1-c1cnc(N)c(-n2cncn2)n1 [Example 127.58, (S)-3-(5-amino-6-(1H-1,2,4-triazol-1-yl)pyrazin-2-yl)-4-methyl-N-(pyrrolidin-3-ylmethyl)benzenesulfonamide trifluoroacetic acid salt]	
7950	4870	450	190	67	> 10000		1550	192	1710	1050	103	850	Cc1ccc(S(=O)(=O)NCCC(F)(F)F)cc1-c1cnc(N)c(-n2cncn2)n1 [Example 127.31]	
> 9100	> 9100	420	350	56	> 9100		5500	104	3720	1940	354	2500	Cc1cc(-c2nc(-c3cc(S(=O)(=O)NCC4CCCO4)ccc3C)cnc2N)ccn1 (stereo not shown) [Example 129.17, 3-(5-amino-6-(2-methylpyridin-4-yl)pyrazin-2-yl)-4-methyl-N-((tetrahydrofuran-2-yl)methyl)benzenesulfonamide]	
3700	7460	130	90	44	> 9100		7490	81	1770	870	3640	490	COc1cc(-c2nc(-c3cc(S(=O)(=O)NCCC(C)(C)O)ccc3C)cnc2N)ccn1 [Example 119.3]	
